Laboratory results reported in US20210236698A1, “ANTIMICROBIAL LOCKING SOLUTIONS COMPRISING TAURINAMIDE DERIVATIVES AND BIOLOGICALLY ACCEPTABLE SALTS AND ACIDS, WITH THE ADDITION OF SMALL CONCENTRATIONS OF HEPARIN” (ND Partners, LLC, priority 2004, published 2021).

Tests used:
red cells = assay type: cell-based
Text: The trial results by Dr Allon were examined by researchers in a group of experiments at the Naval Blood Laboratory and Boston University Medical School. […] However, the researchers were not able to determine exactly how their results were relevant to the findings in the University of Alabama clinical trial.

[1] = Biocidal effectiveness of taurolidine solution with citrate/citric acid pH adjustment; conditions: citrates and citric acid, pH of end solution in the vicinity of 5.2 to 6.5
Text: The concentration of taurolidine in such solutions is preferably in the range of from about 0.4 to about 5% by weight, depending upon the solubility of the compound. […] The approach creates a buffer system of citric acid/sodium citrate by adjustment of pH using sodium hydroxide. This buffer system also resists changes in the pH due to the oxidation of formaldehyde to formic acid.

[2] = Long term stability tests of taurolidine in solution; assay type: physicochemical; conditions: citric acid and sodium citrate in combination, versus solution prepared with PVP
Text: In addition, citric acid is a known antioxidant. […] The composition employed in the practice of the present invention preferably also contains a pharmacologically acceptable carrier solution, such as, water, Ringer's solution, or saline.

O=S1(=O)CCN(CN2CCS(=O)(=O)NC2)CN1 [taurolidine]
changes to blood in contact with solution (red cells): morphological changes to red cells | biocidal effectiveness [1]: substantially increases | precipitation of solid taurolidine and reaction products from solution [2]: prevents or severely slows down

heparin
changes to blood in contact with solution (red cells): did not happen
